Measurements reported in patent US10570152B2, “Antibacterial therapeutics and prophylactics” (VYOME BIOSCIENCES PVT. LTD., priority 2015, dated 2020).
≈ marks a conversion by molar mass, not a printed value.

Tests used:
[1] = test system: P. acnes CCARM 9010 induced paw inflammation; assay: Anti-inflammatory action in vivo, rat paw edema model; set-up: species or system Sprague Dawley rats; conditions: topical, 24 h post initiation of treatment (32 h post induction)
Text: Host inflammation is one of the crucial clinical feature of most of the indications associated with bacterial infections. The inventors used an exemplary compound of the invention (Compound 2) to test the anti-inflammatory effects in vivo using rat paw edema model. Inflammation was induced using one of the opportunistic pathogens Propionibacterium acnes prevalent in implant associated infections. Sprague Dawley rats were used for the study and infection was induced by P. acnes CCARM 9010. An inoculum of 1×10^9 CFU/ml of the heat killed bacteria was injected to the plantar side of the right hind paw (˜2×10^7 CFU/paw) except in sham control where saline was injected. Treatments were initiated 8 h post injection by applying the test formulation of Compound 2 (30 mg) twice daily to the plantar surface of the right hind paw and gently rubbing 50 times with the index finger. Comparators Acnedap (dapsone 5% gel) and adapalene gel (Adaferin®) were applied twice daily and once daily based on clinical prescription dosage. Paw sizes were measured in millimeters using Vernier calipers at the start of the infection, 8 h post infection, and 24 h post initiation of treatment (32 h post induction of inflammation). The change in paw size, due to inflammation, was evaluated as the difference between the paw size measured at each time point and the basal paw size measured immediately before edema induction.

[2] = test system: A. baumannii CCARM 12001; assay: MIC by micro broth dilution; assay type: cell-based; conditions: Acinetobacter baumannii, CCARM12001, read-out: Minimum inhibitory concentration (MIC)
Experimental: (§1) MIC of DART molecules were determined by micro broth dilution as per CLSI guidelines. Bacterial strains were cultured in Brain Heart Infusion Agar (BHIA) at 37° C. for 24 h. For MIC determination, BHI broth (100 μl) was added to each of the wells of a 96 well plate. 100 μl of broth containing drug was added to the first well (1A to 1H) and thereafter serial (double) dilutions were carried out for up to 10 wells (column 1 to column 10 of the 96 well plate). Bacterial inoculum was prepared by adjusting the bacterial culture turbidity to 0.5 McFarland standard (approximately 1.5×10^8 cells/ml) and further diluted (100 times with sterile BHI broth). Diluted bacterial suspension (100 μl) was added to each well except sterility control wells (column 12 of 96 well plate). The plates were incubated at 37° C. for 24 h. The MIC of the test compound was measured after addition of Alamar blue dye.

[3] = test system: A. baumannii ATCC 1906; assay: MIC by micro broth dilution; assay type: cell-based; conditions: Acinetobacter baumannii, ATCC1906, read-out: Minimum inhibitory concentration (MIC)
Experimental: as §1

[4] = test system: E. faecium NCIM 5421; assay: MIC by micro broth dilution; assay type: cell-based; conditions: Enterococcus faecium, NCIM5421, read-out: Minimum inhibitory concentration (MIC)
Experimental: as §1

[5] = test system: S. aureus CCARM 3505; assay: MIC by micro broth dilution; assay type: cell-based; conditions: Staphylococcus aureus, CCARM3505, read-out: Minimum inhibitory concentration (MIC)
Experimental: as §1

[6] = test system: S. aureus ATCC 43300; assay: MIC by micro broth dilution; assay type: cell-based; conditions: for MIC: Staphylococcus aureus, ATCC43300, S. aureus ATCC 43300, read-out: Minimum inhibitory concentration (MIC)
Experimental: as §1

[7] = test system: E. coli BAA 196; assay: MIC by micro broth dilution; assay type: cell-based; conditions: Escherichia coli, BAA196, read-out: Minimum inhibitory concentration (MIC)
Experimental: as §1

[8] = test system: P. aeruginosa CCARM 2161; assay: MIC by micro broth dilution; assay type: cell-based; conditions: Pseudomonas aeruginosa, CCARM2161, read-out: Minimum inhibitory concentration (MIC)
Experimental: as §1

[9] = test system: A. baumannii CCARM 12020; assay: MIC by micro broth dilution; assay type: cell-based; conditions: Acinetobacter baumannii, CCARM12020, read-out: Minimum inhibitory concentration (MIC)
Experimental: as §1

[10] = test system: K. pneumonia ATCC 13883; assay: MIC by micro broth dilution; assay type: cell-based; conditions: for MIC: Klebsiella pneumoniae, ATCC13883, K. pneumonia ATCC 13883, read-out: Minimum inhibitory concentration (MIC)
Experimental: as §1

[11] = test system: S. epidermidis S12-1; assay: MIC by micro broth dilution; assay type: cell-based; conditions: Staphylococcus epidermidis, S121, read-out: Minimum inhibitory concentration (MIC)
Experimental: as §1

[12] = test system: E. coli MTCC 1687; assay: MIC by micro broth dilution; assay type: cell-based; conditions: Escherichia coli, MTCC1687, read-out: Minimum inhibitory concentration (MIC)
Experimental: as §1

[13] = test system: P. aeruginosa ATCC 27853; assay: MIC by micro broth dilution; assay type: cell-based; conditions: Pseudomonas aeruginosa, ATCC27853, read-out: Minimum inhibitory concentration (MIC)
Experimental: as §1

[14] = test system: P. aeruginosa CCARM 2204; assay: MIC by micro broth dilution; assay type: cell-based; conditions: Pseudomonas aeruginosa, CCARM2204, read-out: Minimum inhibitory concentration (MIC)
Experimental: as §1

[15] = test system: S. epidermidis ATCC 35984; assay: MIC by micro broth dilution; assay type: cell-based; conditions: Staphylococcus epidermidis, ATCC35984, read-out: Minimum inhibitory concentration (MIC)
Experimental: as §1

[16] = test system: S. aureus MTCC 6908; assay: MIC by micro broth dilution; assay type: cell-based; conditions: Staphylococcus aureus, MTCC6908, read-out: Minimum inhibitory concentration (MIC)
Experimental: as §1

[17] = test system: S. epidermidis ATCC 35984 biofilm; assay: Biofilm disruption assay (MTT) with compounds and compound loaded beads; assay type: cell-based; conditions: Staphylococcus epidermidis, ATCC35984, 48 h biofilm, 24 h treatment; read-out: Concentration of compounds (mg/ml) for 50% biofilm disruption
Experimental: S. epidermidis ATCC 35984 was grown in Brain Heart Infusion Agar (BHIA) at 37° C. for 24 h. The loop full of bacterial culture was suspended in sterile water and matched the turbidity against 0.5 McFarland Standard (approximately 1.5×10^8), 100 μl of culture suspension was added into each well of the 96 well plate and plates were incubated at 37° C. for 48 h for biofilm formation. The biofilm formed in each well was washed twice with sterile water to remove the planktonic cells. Then biofilm was treated with 100 yl of BHI broth suspended with various concentrations of DART molecules, followed by incubation of the plates at 37° C. for 24 h. Subsequently the biofilm in the wells were stained with MTT reagent and the plates were incubated at 37° C. for 2 h. The precipitate formed in the wells was dissolved in 100 μl of dimethyl sulfoxide (DMSO) and the absorbance was measured at 600 nm in multi well plate reader to determine the minimum biofilm inhibitory concentration (MBIC). The MBIC was calculated by subtracting the absorbance value of each drug treated sample from that of 48 h growth control.

[18] = test system: E. aerogenes M2-1; assay: MIC by micro broth dilution; assay type: cell-based; conditions: Klebsiella aerogenes, M21, read-out: Minimum inhibitory concentration (MIC)
Experimental: as §1

[19] = test system: E. faecium CCARM 5207; assay: MIC by micro broth dilution; assay type: cell-based; conditions: Enterococcus faecium, CCARM5207, read-out: Minimum inhibitory concentration (MIC)
Experimental: as §1

[20] = test system: E. fecalis CCARM 5168; assay: MIC by micro broth dilution; assay type: cell-based; conditions: read-out: Minimum inhibitory concentration (MIC)
Experimental: as §1

[21] = test system: E. aerogenes NCIM 5139; assay: MIC by micro broth dilution; assay type: cell-based; conditions: Klebsiella aerogenes, NCIM5139, read-out: Minimum inhibitory concentration (MIC)
Experimental: as §1

| SMILES | MIC [2] [µg/mL] | MIC [3] [µg/mL] | MIC [4] [µg/mL] | MIC [5] [µg/mL] | MIC [6] [µg/mL] | MIC [7] [µg/mL] | MIC [8] [µg/mL] | MIC [9] [µg/mL] | MIC [10] [µg/mL] | MIC [11] [µg/mL] | MIC [12] [µg/mL] | MIC [13] [µg/mL] | MIC [14] [µg/mL] | MIC [15] [µg/mL] | MIC [16] [µg/mL] | MIC [19] [µg/mL] | MIC [20] [µg/mL] | also measured |
| --- | --- | --- | --- | --- | --- | --- | --- | --- | --- | --- | --- | --- | --- | --- | --- | --- | --- | --- |
| Nc1ccc(S(=O)(=O)c2ccc(N)cc2)cc1 [Dapsone, dapsone, reference compound] |  |  |  |  |  |  |  |  |  |  |  |  |  |  |  |  |  | Inhibition of inflammation (%) at 24 h post treatment [1]: 43.82% |
| CC(=O)NC[C@H]1CN(c2ccc(N3CCN(CC(=O)Nc4ncc([N+](=O)[O-])s4)CC3)c(F)c2)C(=O)O1 [Compound 55, (S)-2-(4-(4-(5-(Acetamidomethyl)-2-oxooxazolidin-3-yl)-2-fluorophenyl)piperazin-1-yl)-N-(5-nitrothiazol-2-yl)acetamide] | > 16 | > 16 | 0.06 (≈ 0.115 µM) | 0.25 (≈ 0.479 µM) | 0.5 (≈ 0.959 µM) | > 16 | > 16 | > 16 | > 16 | 0.5 (≈ 0.959 µM) | > 16 | > 16 | > 16 | 0.06 (≈ 0.115 µM) | 0.25 (≈ 0.479 µM) |  |  | fold better activity in comparison to commercial linezolid ([6]; against MRSA): 8 fold; times more active than linezolid analogue ([6]; against MRSA): 8 times; EC50 [17]: > 2 mg/mL |
| CC1Sc2c(C(=O)O)c(=O)c3cc(F)c(N4CCN(C(=O)c5ccc([N+](=O)[O-])o5)CC4)cc3n21 (centres unmarked) [Compound 11, 6-Fluoro-1-methyl-7-(4-(5-nitrofuran-2-carbonyl)piperazin-1-yl)-4-oxo-1H,4H-[1,3]thiazeto[3,2-a]-quinoline-3-carboxylic acid] | > 16 | 1 (≈ 2.05 µM) | 0.625 (≈ 1.28 µM) | 1 (≈ 2.05 µM) | 0.03 (≈ 0.0614 µM) | 1 (≈ 2.05 µM) | > 16 | > 16 | 0.5 (≈ 1.02 µM) | 0.13 (≈ 0.266 µM) | 0.25 (≈ 0.512 µM) | 1 (≈ 2.05 µM) | > 16 | < 0.03 | 0.125 (≈ 0.256 µM) | 8 (≈ 16.4 µM) | 4 (≈ 8.19 µM) | MIC [18]: 0.25 µg/mL (≈ 0.512 µM); activity in words ([10]; Klebsiella pneumonia (susceptible)): active; MIC [21]: 0.125 µg/mL (≈ 0.256 µM) |
| CC1Sc2c(C(=O)O)c(=O)c3cc(F)c(N4CCN(CC(=O)Nc5ccc6nc(N)[nH]c6c5)CC4)cc3n21 (centres unmarked) [Compound 19, 7-(4-(2-((2-Amino-1H-benzo[d]imidazol-6-yl)-amino)-2-oxoethyl)piperazin-1-yl)-6-fluoro-1-methyl-4-oxo-1H,4H-[1,3]thiazeto[3,2-a]quinoline-3-carboxylic acid] |  |  | > 16 | > 16 | 32 (≈ 59.5 µM) |  |  |  |  | > 16 |  |  |  | 16 (≈ 29.8 µM) | > 64 | > 16 | > 16 |  |
